Test results taken from PubChem BioAssay AID330 (DTP/NCI, 2004).
Values joined by “and” are separate entries in the source; they are usually repeats but may differ in a detail not shown here. Equal values may be shown once. Inconclusive results and toxic doses are left out.

Test system: P388 leukemia ip, CD2F1 mice, survival T/C
Experiment: NCI In Vivo Anticancer Drug Screen. Data for tumor model P388 Leukemia (intraperitoneal) in CD2F1 (CDF1) mice
Settings: endpoint: median survival time, higher = longer survival
Summary of the method: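 Mice carrying the transplanted tumor received test compound or vehicle. Survival was recorded in each group, and the value is the treated-group measurement divided by that of the vehicle-treated control group.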

[1] = dose: 60.0 mg/kg/injection, schedule: Q01DX005 (ip), vehicle: saline
[2] = dose: 120.0 mg/kg/injection, schedule: Q01DX005 (ip), vehicle: saline
[3] = dose: 240.0 mg/kg/injection, schedule: Q01DX005 (ip), vehicle: saline

`COc1ccc(C[N+]2=Cc3cc(OC)c(OC)cc3CC2)cc1` was tested, and the T/C (dose: 12.5 mg/kg/injection, schedule: Q01DX001 (ip), vehicle: saline + alcohol) was 100 % of control, the T/C (dose: 25.0 mg/kg/injection, schedule: Q01DX001 (ip), vehicle: saline + alcohol) was 98 % of control and the T/C (dose: 50.0 mg/kg/injection, schedule: Q01DX001 (ip), vehicle: saline + alcohol) was 98 % of control.
In the case of `CC1=C2C(=CC(C)(C)[C@@H]2O)C(=O)[C@](C)(O)C12CC2`, the T/C (dose: 0.26 mg/kg/injection, schedule: Q01DX010 (ip), vehicle: saline) was 110 % of control, the T/C (dose: 0.4 mg/kg/injection, schedule: Q01DX010 (ip), vehicle: saline) was 110 % of control and the T/C (dose: 0.6 mg/kg/injection, schedule: Q01DX010 (ip), vehicle: saline) was 115 % of control. For the same compound, the T/C (dose: 45.0 micrograms/kg/injection, schedule: Q01DX010 (ip), vehicle: saline) was 100 % of control, the T/C (dose: 90.0 micrograms/kg/injection, schedule: Q01DX010 (ip), vehicle: saline) was 104 % of control and the T/C (dose: 180.0 micrograms/kg/injection, schedule: Q01DX010 (ip), vehicle: saline) was 113 % of control.
In the case of `CNC(=O)OCCC(OC(=O)NC)C1CCC2C3CCC4CC(OC(=O)NC)CCC4(C)C3CCC12C` (stereo unspecified), the T/C (dose: 100.0 mg/kg/injection, schedule: Q01DX001 (ip), vehicle: Klucel (hydroxypropylcellulose) (HPC)) was 108 % of control, the T/C (dose: 200.0 mg/kg/injection, schedule: Q01DX001 (ip), vehicle: Klucel (hydroxypropylcellulose) (HPC)) was 108 % of control and the T/C (dose: 400.0 mg/kg/injection, schedule: Q01DX001 (ip), vehicle: Klucel (hydroxypropylcellulose) (HPC)) was 101 % of control.
With `O/N=C/C(=NCc1ccccn1)NO` the T/C (dose: 60.0 mg/kg/injection, schedule: Q01DX005 (ip), vehicle: Klucel (hydroxypropylcellulose) (HPC)) was 107 % of control, the T/C (dose: 120.0 mg/kg/injection, schedule: Q01DX005 (ip), vehicle: Klucel (hydroxypropylcellulose) (HPC)) was 103 % of control and the T/C (dose: 240.0 mg/kg/injection, schedule: Q01DX005 (ip), vehicle: Klucel (hydroxypropylcellulose) (HPC)) was 103 % of control.
With `O=C(O)CNCc1ccc(F)cc1` the T/C (dose: 100.0 mg/kg/injection, schedule: Q04DX003 (ip), vehicle: saline) was 98 % of control, the T/C (dose: 200.0 mg/kg/injection, schedule: Q04DX003 (ip), vehicle: saline) was 103 % of control and the T/C (dose: 400.0 mg/kg/injection, schedule: Q04DX003 (ip), vehicle: saline) was 102 % of control. For the same compound, the T/C (dose: 600.0 mg/kg/injection, schedule: Q04DX003 (ip), vehicle: saline) was 100 % of control.
With `O/N=c1/ccn(O)c2ccccc12` the T/C (dose: 0.78 mg/kg/injection, schedule: Q01DX009 (ip), vehicle: saline) was 161 % of control, the T/C (dose: 1.56 mg/kg/injection, schedule: Q01DX009 (ip), vehicle: saline) was 171 % of control and the T/C (dose: 3.12 mg/kg/injection, schedule: Q01DX009 (ip), vehicle: saline) was 204 % of control.
With `C=C(C)C1CCC2(C)CC3C(=C)CC(O)C(O)C3(C)CCC12` (stereo unspecified) the T/C (dose: 4.0 mg/kg/injection, schedule: Q01DX009 (ip), vehicle: Klucel (hydroxypropylcellulose) (HPC)) was 104 % of control, the T/C (dose: 8.0 mg/kg/injection, schedule: Q01DX009 (ip), vehicle: Klucel (hydroxypropylcellulose) (HPC)) was 101 % of control and the T/C (dose: 16.0 mg/kg/injection, schedule: Q01DX009 (ip), vehicle: Klucel (hydroxypropylcellulose) (HPC)) was 101 % of control. The T/C (dose: 32.0 mg/kg/injection, schedule: Q01DX009 (ip), vehicle: Klucel (hydroxypropylcellulose) (HPC)) was 104 % of control.
`NC(N)=N/N=C/c1ccc[nH]1` was tested, and the T/C (dose: 50.0 mg/kg/injection, schedule: Q01DX005 (ip), vehicle: saline with Tween-80) was 104 % of control, the T/C (dose: 100.0 mg/kg/injection, schedule: Q01DX005 (ip), vehicle: saline with Tween-80) was 106 % of control and the T/C (dose: 200.0 mg/kg/injection, schedule: Q01DX005 (ip), vehicle: saline with Tween-80) was 104 % of control.
`CC(=O)OC1C(C(O)CO)OC2OC(C)(C)OC21` (stereo unspecified) was tested, and the T/C [1] was 100 % of control, the T/C [2] was 105 % of control and the T/C [3] was 96 % of control.
With `CC1(C)OC2OC3COP(=O)(c4ccccc4)C3(CC#N)C2O1` (stereo unspecified) the T/C (dose: 60.0 mg/kg/injection, schedule: Q01DX005 (ip), vehicle: saline with Tween-80) was 94 % of control, the T/C (dose: 120.0 mg/kg/injection, schedule: Q01DX005 (ip), vehicle: saline with Tween-80) was 99 % of control and the T/C (dose: 240.0 mg/kg/injection, schedule: Q01DX005 (ip), vehicle: saline with Tween-80) was 98 % of control.
In the case of `O=C(Cc1ccccc1)OCC1=CCN2CC[C@@H](O)[C@@H]12`, the T/C (dose: 15.0 mg/kg/injection, schedule: Q01DX009 (ip), vehicle: saline + alcohol) was 97 % of control, the T/C (dose: 30.0 mg/kg/injection, schedule: Q01DX009 (ip), vehicle: saline + alcohol) was 99 % of control and the T/C (dose: 60.0 mg/kg/injection, schedule: Q01DX009 (ip), vehicle: saline + alcohol) was 97 % of control. The T/C (dose: 120.0 mg/kg/injection, schedule: Q01DX009 (ip), vehicle: saline + alcohol) was 109 % of control, the T/C (dose: 240.0 mg/kg/injection, schedule: Q01DX009 (ip), vehicle: saline + alcohol) was 105 % of control and the T/C (dose: 480.0 mg/kg/injection, schedule: Q01DX009 (ip), vehicle: saline + alcohol) was 116 % of control.
For `CC(Cl)CNCC(C)(C)C` (stereo unspecified), the T/C (dose: 50.0 mg/kg/injection, schedule: Q01DX005 (ip), vehicle: saline) was 100 % of control and the T/C (dose: 100.0 mg/kg/injection, schedule: Q01DX005 (ip), vehicle: saline) was 99 % of control.
`COc1cc2c(cc1-c1coc3cc(OCC=C(C)C)ccc3c1=O)OCO2` was tested, and the T/C (dose: 9.0 mg/kg/injection, schedule: Q01DX005 (ip), vehicle: Klucel (hydroxypropylcellulose) (HPC)) was 96 % of control, the T/C (dose: 18.0 mg/kg/injection, schedule: Q01DX005 (ip), vehicle: Klucel (hydroxypropylcellulose) (HPC)) was 94 % of control and the T/C (dose: 36.0 mg/kg/injection, schedule: Q01DX005 (ip), vehicle: Klucel (hydroxypropylcellulose) (HPC)) was 87 % of control. For the same compound, the T/C (dose: 72.0 mg/kg/injection, schedule: Q01DX005 (ip), vehicle: Klucel (hydroxypropylcellulose) (HPC)) was 92 % of control.
With `COC(=O)C1(C#N)CC1` the T/C [1] was 113 % of control, the T/C [2] was 96 % of control and the T/C [3] was 103 % of control.
With `CCOC(=O)CCCCCCCCNC(=S)N1c2c(nc(N)[nH]c2=O)NCC1CNc1ccc(C(=O)NC(CCC(=O)O)C(=O)O)cc1` (stereo unspecified) the T/C (dose: 50.0 mg/kg/injection, schedule: Q01DX009 (ip), vehicle: Klucel (hydroxypropylcellulose) (HPC)) was 90 % of control, the T/C (dose: 100.0 mg/kg/injection, schedule: Q01DX009 (ip), vehicle: Klucel (hydroxypropylcellulose) (HPC)) was 110 % of control and the T/C (dose: 200.0 mg/kg/injection, schedule: Q01DX009 (ip), vehicle: Klucel (hydroxypropylcellulose) (HPC)) was 99 % of control.
In the case of `C=C1C(=O)OC2CC(C)CCC/C(CO)=C/C(OC(=O)/C(=C/CO)CO)C12` (stereo unspecified), the T/C (dose: 7.0 mg/kg/injection, schedule: Q01DX005 (ip), vehicle: saline) was 98 % of control, the T/C (dose: 14.0 mg/kg/injection, schedule: Q01DX005 (ip), vehicle: saline) was 101 % of control and the T/C (dose: 28.0 mg/kg/injection, schedule: Q01DX005 (ip), vehicle: saline) was 114 % of control.
For `O=C(O)c1ccc(N/N=C/C(F)(F)F)cc1`, the T/C (dose: 60.0 mg/kg/injection, schedule: Q01DX005 (ip), vehicle: saline + Tween-80 + alcohol) was 96 % of control, the T/C (dose: 120.0 mg/kg/injection, schedule: Q01DX005 (ip), vehicle: saline + Tween-80 + alcohol) was 94 % of control and the T/C (dose: 240.0 mg/kg/injection, schedule: Q01DX005 (ip), vehicle: saline + Tween-80 + alcohol) was 102 % of control.
For `CCC(C)Nc1ccc(N)cc1` (stereo unspecified), the T/C (dose: 0.1 mg/kg/injection, schedule: Q01DX009 (ip), vehicle: carboxymethylcellulose (CMC)) was 115 % of control, the T/C (dose: 0.39 mg/kg/injection, schedule: Q01DX009 (ip), vehicle: Klucel (hydroxypropylcellulose) (HPC)) was 95 % of control and the T/C (dose: 0.4 mg/kg/injection, schedule: Q01DX009 (ip), vehicle: carboxymethylcellulose (CMC)) was 111 % of control. For the same compound, the T/C (dose: 0.78 mg/kg/injection, schedule: Q01DX009 (ip), vehicle: Klucel (hydroxypropylcellulose) (HPC)) was 102 % of control, the T/C (dose: 1.56 mg/kg/injection, schedule: Q01DX009 (ip), vehicle: Klucel (hydroxypropylcellulose) (HPC)) was 104 % of control and 110 % of control and the T/C (dose: 3.12 mg/kg/injection, schedule: Q01DX009 (ip), vehicle: Klucel (hydroxypropylcellulose) (HPC)) was 100 % of control and 119 % of control. The T/C (dose: 6.25 mg/kg/injection, schedule: Q01DX009 (ip), vehicle: Klucel (hydroxypropylcellulose) (HPC)) was 108 % of control and 112 % of control.
With `C[N-]N(C)C(=O)[S-].C[N-]N(C)C(=O)[S-].C[N-]N(C)C(=O)[S-].[Co]` the T/C (dose: 25.0 mg/kg/injection, schedule: Q04DX003 (ip), vehicle: saline with Tween-80) was 103 % of control and the T/C (dose: 50.0 mg/kg/injection, schedule: Q04DX003 (ip), vehicle: saline with Tween-80) was 103 % of control.
For `O=C1C=CC(=Nc2ccccc2)O1`, the T/C (dose: 2.5 mg/kg/injection, schedule: Q01DX009 (ip), vehicle: saline with Tween-80) was 100 % of control, the T/C (dose: 5.0 mg/kg/injection, schedule: Q01DX009 (ip), vehicle: saline with Tween-80) was 100 % of control and the T/C (dose: 10.0 mg/kg/injection, schedule: Q01DX009 (ip), vehicle: saline with Tween-80) was 95 % of control.
